# Assay results from the NIST ThermoML archive (doi:10.1021/je0604030).
# Numbers after ± are expanded uncertainties.
# Settings: Liquid, Ebulliometric method (Recirculating still)
Structure (SMILES),vapor or sublimation pressure (159.61 K) [kPa],vapor or sublimation pressure (161.58 K) [kPa],vapor or sublimation pressure (169.38 K) [kPa],vapor or sublimation pressure (173.9 K) [kPa],vapor or sublimation pressure (178.93 K) [kPa]
C [methane],1567 ± 50,1695 ± 54,2276 ± 73,2672 ± 86,3170 ± 100
FC(F)(F)F [tetrafluoromethane],243 ± 8,269 ± 9,431 ± 14,517 ± 17,651 ± 21
